Measured values from patent publication US20130280188A1, “SELF-TANNING COSMETIC” (KAO CORPORATION, priority 2012, published 2013).

Key:
olfactory receptor OR5K1 [1] = molecular target: T1, olfactory receptor OR5K1 (Homo sapiens, UniProt Q8NHB7); test: Luciferase reporter gene assay of olfactory receptor response in HEK293 cells; format: cell-based; conditions: for Concentration-dependent response of OR5K1: 0, 3, 10, 30, 100, 300, and 1000 μM, HEK293 cells with RTP1S variant, FIG. 5
T1 construct: expressed in transfected cells; host or cells: HEK293
T1 sequence (Q8NHB7 1-308): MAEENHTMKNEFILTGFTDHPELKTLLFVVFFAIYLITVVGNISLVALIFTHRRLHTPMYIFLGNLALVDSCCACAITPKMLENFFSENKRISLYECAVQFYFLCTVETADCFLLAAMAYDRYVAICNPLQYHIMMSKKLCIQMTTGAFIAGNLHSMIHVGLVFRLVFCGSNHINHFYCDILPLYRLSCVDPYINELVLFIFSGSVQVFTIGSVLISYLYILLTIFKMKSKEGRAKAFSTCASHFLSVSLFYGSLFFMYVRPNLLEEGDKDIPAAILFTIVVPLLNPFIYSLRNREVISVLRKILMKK
Text: Human olfactory receptors were cloned based on sequence information registered in GenBank by PCR using human genomic DNA female (G1521: Promega Corporation) as a template. Each gene amplified by FCR was incorporated into pENTR vector (Invitrogen Inc.) in accordance with the manual and recombined to the NotI and AscI sites located downstream of a Flag-Rho tag sequence in a pME18S vector using the NotI and AscI sites present on the pENTR vector.
An RTP1S variant gene (SEQ ID NO: 3) encoding an RTP1S variant (SEQ ID NO: 4) was incorporated into the EcoRI and XhoI sites of a pME18S vector.
HEK293 cells expressing 373 types of human olfactory receptors were produced. A reaction solution having a composition shown in Table 2 was prepared, left to stand in a clean bench for 15 min and then was dispensed in each well of a 96 well plate (Becton, Dickinson and Company). Subsequently, HEK293 cells (100 μL, 3×10^5 cells/cm^2) were seeded in each well and cultured in an incubator at 37° C. under 5 mass % CO2 for 24 hours.
An olfactory receptor expressed in HEK293 cells couples with endogenous Gas in the cells to activate adenylate cyclase and thereby increases the amount of intracellular cAMP. In this study, the odor response was measured by luciferase reporter gene assay which monitors an increase in amount of intracellular cAMP as the luminescence value derived from a firefly luciferase gene (fluc2P-CRE-hygro). A Renilla luciferase gene was fused with the downstream of a CMV promoter (hRluc-CMV) and was also introduced to HEK293 cells as an internal standard to correct errors in gene transfer efficiency and number of cells.
The culture medium was removed from the culture produced in the above 3), and 75 μL of a solution prepared with a CD293 medium (Invitrogen Inc.) so as to contain a pyrazine derivative (1 mM 2,6-dimethylpyrazine) was added thereto. The cells were cultured in a CO2 incubator for 2.5 hours to sufficiently express the luciferase gene in the cells. The luciferase activity was measured with a Dual-Glo™ luciferase assay system (Promega Corporation) in accordance with the operating manual of the system. The fold increases were calculated by dividing the luminescence value derived from firefly luciferase induced by stimulation with the odor substances by the luminescence value in cells not stimulated with the odor substances and were used as an index of response strength.
Olfactory receptor OR5K1 (SEQ ID NO: 2) was expressed in HEK293 cells together with an RTP1S variant (SEQ ID NO: 4) by the same procedure as in Test Example 3, and the dependency of the response on the concentration (0, 3, 10, 30, 100, 300, and 1000 μM) in various pyrazine compounds was investigated. The pyrazine compounds used in this Example were pyrazine and pyrazine derivatives selected from the group consisting of 2-methylpyrazine, 2,3-dimethylpyrazine, 2,5-dimethylpyrazine, 2,3,5-trimethylpyrazine, 2,3,5,6-tetramethylpyrazine, and 2-ethylpyrazine.

olfactory receptor OR5K1 [2] = molecular target: T1, olfactory receptor OR5K1; test: Antagonist activity against OR5K1 response to 2,6-dimethylpyrazine (luciferase assay, HEK293 cells); format: cell-based; conditions: HEK293 cells expressing OR5K1; for Receptor response-inhibiting rate: 2,6-dimethylpyrazine 1 mM and test material 300 μM (cytotoxic perfumes: 333 μM and 100 JAM); for Antagonist activity on the response of OR5K1 to pyrazine derivatives: 2,6-dimethylpyrazine 1 mM and test material 300 μM
Experimental: Antagonist activities of 174 test materials against olfactory receptor OR5K1 were investigated by examining response of OR5K1 to a pyrazine derivative.
2,6-Dimethylpyrazine (1 mM) and each of the test materials (300 μM) were added to HEK293 cells expressing olfactory receptor OR5K1 by the same procedure as in Test Example 4, and the response of the olfactory receptor to 2,6-dimethylpyrazine was measured to evaluate a change in response of the receptor due to addition of the test material. Perfumes recognized to have cytotoxicity were re-evaluated using a mixture of 333 μM of 2,6-dimethylpyrazine and 100 JAM of a test material.
The receptor response-inhibiting rate of a test material was calculated as follows. The receptor activity (X−Y) by stimulation with 2,6-dimethylpyrazine alone was determined by subtracting the luminescence value (Y) in cells to which the receptor was introduced but were not stimulated with 2,6-dimethylpyrazine from the luminescence value (X) derived from firefly luciferase induced by odor stimulation with 2,6-dimethylpyrazine alone. Similarly, the receptor activity (Z−Y) in the presence of a test material was determined by subtracting the luminescence value (Y) in cells not stimulated with 2,6-dimethylpyrazine from the luminescence value (Z) stimulated with a mixture of 2,6-dimethylpyrazine and the test material. The reduction rate of the receptor activity (Z−Y) in the presence of a test material to the receptor activity (X−Y) by stimulation with 2,6-dimethylpyrazine alone was calculated by the following computation expression:
Inhibition rate (%)={1−(Z−Y)/(X−Y)}×100,
to determine the receptor response-inhibiting rate of the test material. In the measurement, multiple independent experiments were performed in duplicate, and the average of each experiment was used.

SMILES | Concentration-dependent response of OR5K1 (olfactory receptor OR5K1 [1]) | Response of olfactory receptor OR5K1 (olfactory receptor OR5K1 [1]; 1 mM, screen of 373 types of human olfactory receptors in HEK293 cells, FIG. 4) | Receptor response-inhibiting rate (olfactory receptor OR5K1 [2]) | Antagonist activity on the response of OR5K1 to pyrazine derivatives (olfactory receptor OR5K1 [2])
Cc1nc(C)c(C)nc1C [2,3,5,6-tetramethylpyrazine] | concentration-dependently responded |  |  | 
Cc1cnc(C)c(C)n1 [2,3,5-trimethylpyrazine] | concentration-dependently responded |  |  | 
Cc1nccnc1C [2,3-dimethylpyrazine] | concentration-dependently responded |  |  | 
Cc1cnc(C)cn1 [2,5-Dimethyl pyrazine, 2,5-dimethylpyrazine] | concentration-dependently responded |  |  | 
Cc1cncc(C)n1 [2,6-Dimethyl pyrazine, 2,6-dimethylpyrazine] | concentration-dependently responded | responded |  | 
Cc1cnccn1 [2-Methyl pyrazine, 2-methylpyrazine] | concentration-dependently responded |  |  | 
CCc1cnccn1 [2-ethylpyrazine] | concentration-dependently responded |  |  | 
CCC(=CCC1CC=C(C)C1(C)C)CO (stereo not drawn) [Bangalol, 2-ethyl-4-(2,2,3-trimethyl-3-cyclopenten-1-yl)-2-buten-1-ol] |  |  | 75% or more | antagonist activity
CC(C=O)Cc1ccc(C(C)C)cc1 (stereo not drawn) [Cyclamen aldehyde, 2-methyl-3-(4-iso-propylphenyl)propanal] |  |  | 75% or more | antagonist activity
CC(C)CC1CC(C)(O)CCO1 (stereo not drawn) [Florosa, 4-methyl-2-(2-methylpropyl)tetrahydro-2H-4-pyranol] |  |  | Not inhibited | no antagonist activity
CCCCCC1C(=O)CCC1CC(=O)OC (stereo not drawn) [Methyl dihydrojasmonate, methyl dihydrojasmonate] |  |  | Not inhibited | no antagonist activity
CC(=O)CCc1ccc(O)cc1 [Raspberry ketone, 4-(p-hydroxyphenyl)-2-butanone] |  |  | Not inhibited | no antagonist activity
CCC=C(C)C(O)CCCCC (stereo not drawn) [Undecavertol, 4-methyl-3-decen-5-ol] |  |  | 75% or more | antagonist activity
c1cnccn1 [pyrazine] | did not respond |  |  | 
